Laboratory results from paper PMC5644030 (Biochemistry, 2017).

Assays:
[1] = biological target: T1, Rv3404c (Mycobacterium tuberculosis, UniProt P9WKZ3)
[2] = biological target: T1, Rv3404c; remark: listed apart in the source

T1 sequence (P9WKZ3 whole entry): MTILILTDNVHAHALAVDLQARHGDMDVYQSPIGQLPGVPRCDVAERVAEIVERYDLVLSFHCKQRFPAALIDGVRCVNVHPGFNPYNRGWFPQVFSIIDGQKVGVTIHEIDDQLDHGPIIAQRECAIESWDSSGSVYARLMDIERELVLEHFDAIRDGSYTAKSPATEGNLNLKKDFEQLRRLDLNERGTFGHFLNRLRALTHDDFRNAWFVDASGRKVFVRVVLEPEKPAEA

SMILES | HPLC and ESI mass spectrometry of product [1] | X-ray crystallography, 1.6 Å ternary complex [2]
Nc1nc2c(c(=O)[nH]1)N[C@@H](CN(C=O)c1ccc(C(=O)N[C@@H](CCC(=O)O)C(=O)O)cc1)CN2 [N10-formyl-THF] | Upon incubation of dTDP-Qui4N and N10-formyl-THF with Rv3404c, a peak was observed | 
Nc1nc2c(c(=O)[nH]1)N(C=O)[C@@H](CNc1ccc(C(=O)N[C@@H](CCC(=O)O)C(=O)O)cc1)CN2 [N5-formyl-THF] |  | The structure of Rv3404c in complex with N5-formyltetrahydrofolate (N5-formyl-THF) and dTDP-Qui4N was determined
